Results as given in publication PMC7265429, “Characterization of a new small-molecule inhibitor of HDAC6 in glioblastoma” (Cell Death & Disease, 2020).

System: GNS166 cells
Assay: Microarray whole-transcriptome gene expression analysis
Format: cell-based, human
Method: Whole-transcriptome analysis was performed from 300 ng of RNA using HuGene-2_0-st-v1 expression array (Affymetrix), which covers 48,226 transcripts. Raw data were first checked for quality purposes through the Affymetrix® Expression Console™ Software v1.4.1 and TAC software v4.0. Then, data were normalized using the Robust Multi-array Average (RMA) and analyzed by Limma tool. Probesets with FDR-corrected p-values smaller than 0.05 were selected. Functional enrichment on Gene Ontology (GO) biological processes was performed on a smaller subset of the differentially expressed genes (corrected p-value < 0.001) by means of Broad Institute GSEA. […] The data that support this study have been deposited in NCBI´s Gene Expression Omnibus and are accessible through GEO series accession number GSE143887.

Structure (SMILES): O=C(CCCCCCC(=O)Nc1ccccc1)NO [SAHA, Suberoylanilide hydroxamic acid]
- logFC LIPA (5 µM SAHA vs DMSO, transcript TC1000012577.hg.1): 1.686
- logFC ARNTL (5 µM SAHA vs DMSO, transcript TC1100006899.hg.1): 1.497
- logFC C11orf74 (5 µM SAHA vs DMSO, transcript TC1100007307.hg.1): 1.1776
- logFC FAM111B (5 µM SAHA vs DMSO, transcript TC1100007727.hg.1): 1.402
- logFC CYP2R1 (5 µM SAHA vs DMSO, transcript TC1100010185.hg.1): 1.194
- logFC SESN3 (5 µM SAHA vs DMSO, transcript TC1100012019.hg.1): 1.415
- logFC MMP12 (5 µM SAHA vs DMSO, transcript TC1100012134.hg.1): 1.855
- logFC BIRC3 (5 µM SAHA vs DMSO, transcript TC1100013087.hg.1): 2.344
- logFC CCND2 (5 µM SAHA vs DMSO, transcript TC1200006555.hg.1): 1.786
- logFC GPRC5A (5 µM SAHA vs DMSO, transcript TC1200006896.hg.1): 1.771
- logFC STK38L (5 µM SAHA vs DMSO, transcript TC1200007146.hg.1): 1.792
- logFC LRP1 (5 µM SAHA vs DMSO, transcript TC1200007861.hg.1): 1.377
- logFC TCP11L2 (5 µM SAHA vs DMSO, transcript TC1200008726.hg.1): 1.788
- logFC SLC2A3 (5 µM SAHA vs DMSO, transcript TC1200009800.hg.1): 1.712
- logFC ABCD2 (5 µM SAHA vs DMSO, transcript TC1200010413.hg.1): 2.708
- logFC NELL2 (5 µM SAHA vs DMSO, transcript TC1200010490.hg.1): 2.463
- logFC FAIM2 (5 µM SAHA vs DMSO, transcript TC1200010642.hg.1): 1.773
- logFC AGAP2 (5 µM SAHA vs DMSO, transcript TC1200010976.hg.1): 1.559
- logFC KITLG (5 µM SAHA vs DMSO, transcript TC1200011460.hg.1): 1.767
- logFC LUM (5 µM SAHA vs DMSO, transcript TC1200011495.hg.1): 3.868
- logFC FGD6 (5 µM SAHA vs DMSO, transcript TC1200011574.hg.1): 1.639
- logFC MGST1 (5 µM SAHA vs DMSO, transcript TC1200012597.hg.1): 1.82
- logFC CCNA1 (5 µM SAHA vs DMSO, transcript TC1300006879.hg.1): 1.421
- logFC SERTM1 (5 µM SAHA vs DMSO, transcript TC1300006883.hg.1): 2.721
- logFC NDFIP2 (5 µM SAHA vs DMSO, transcript TC1300007592.hg.1): 1.353
- logFC CLDN10 (5 µM SAHA vs DMSO, transcript TC1300007752.hg.1): 1.556
- logFC RAP2A (5 µM SAHA vs DMSO, transcript TC1300007780.hg.1): 1.182
- logFC SLITRK6 (5 µM SAHA vs DMSO, transcript TC1300009394.hg.1): 2.414
- logFC KDELC1 (5 µM SAHA vs DMSO, transcript TC1300009674.hg.1): 1.5525
- logFC HSPA2 (5 µM SAHA vs DMSO, transcript TC1400007443.hg.1): 3.285
- logFC PPP4R4 (5 µM SAHA vs DMSO, transcript TC1400008058.hg.1): 2.48
- logFC TXNDC16 (5 µM SAHA vs DMSO, transcript TC1400009184.hg.1): 1.763
- logFC EGLN3 (5 µM SAHA vs DMSO, transcript TC1400010730.hg.1): 2.2444
- logFC CKMT1B (5 µM SAHA vs DMSO, transcript TC1500007062.hg.1): 2.569
- logFC CKMT1A (5 µM SAHA vs DMSO, transcript TC1500007067.hg.1): 3.452
- logFC IQCH (5 µM SAHA vs DMSO, transcript TC1500007640.hg.1): 1.591
- logFC ARRDC4 (5 µM SAHA vs DMSO, transcript TC1500008470.hg.1): 1.5
- logFC GCOM1 (5 µM SAHA vs DMSO, transcript TC1500010744.hg.1): 1.317
- logFC ATP1B2 (5 µM SAHA vs DMSO, transcript TC1700006763.hg.1): 3.1227
- logFC TMEM107 (5 µM SAHA vs DMSO, transcript TC1700009676.hg.1): 1.351
- logFC CORO6 (5 µM SAHA vs DMSO, transcript TC1700010252.hg.1): 1.546
- logFC C1QL1 (5 µM SAHA vs DMSO, transcript TC1700010856.hg.1): 1.605
- logFC TTLL6 (5 µM SAHA vs DMSO, transcript TC1700011007.hg.1): 1.858
- logFC (5 µM SAHA vs DMSO, transcript TC1700011261.hg.1): 1.393
- logFC TMEM241 (5 µM SAHA vs DMSO, transcript TC1800008281.hg.1): 1.807
- logFC REEP6 (5 µM SAHA vs DMSO, transcript TC1900006537.hg.1): 1.987
- logFC INAFM1 (5 µM SAHA vs DMSO, transcript TC1900008416.hg.1): 2.5078
- logFC PRKCG (5 µM SAHA vs DMSO, transcript TC1900008825.hg.1): 1.503
- logFC RFPL4A (5 µM SAHA vs DMSO, transcript TC1900008931.hg.1): 3.505
- logFC RFPL4AL1 (5 µM SAHA vs DMSO, transcript TC1900008932.hg.1): 2.766
- logFC KCNC3 (5 µM SAHA vs DMSO, transcript TC1900011194.hg.1): 1.754
- logFC FXYD7 (5 µM SAHA vs DMSO, transcript TC1900011710.hg.1): 2.141
- logFC RTBDN (5 µM SAHA vs DMSO, transcript TC1900011892.hg.1): 2.027
- logFC RNF24 (5 µM SAHA vs DMSO, transcript TC2000008242.hg.1): 1.55
- logFC TASP1 (5 µM SAHA vs DMSO, transcript TC2000008436.hg.1): 1.327
- logFC FLRT3 (5 µM SAHA vs DMSO, transcript TC2000008445.hg.1): 2.943
- logFC CYP24A1 (5 µM SAHA vs DMSO, transcript TC2000009522.hg.1): 1.58
- logFC LCA5L (5 µM SAHA vs DMSO, transcript TC2100008171.hg.1): 1.839
- logFC H1F0 (5 µM SAHA vs DMSO, transcript TC2200007318.hg.1): 1.771
- logFC, unannotated transcript (DMSO vs SAHA, downregulated, transcript 23064072): -1.45
- logFC, unannotated transcript (DMSO vs SAHA, downregulated, transcript 23064958): -1.242
- logFC, unannotated transcript (DMSO vs SAHA, downregulated, transcript 23066344): -2.142
- logFC, unannotated transcript (DMSO vs SAHA, downregulated, transcript 23066350): -1.951
- logFC, unannotated transcript (DMSO vs SAHA, downregulated, transcript 23066369): -2.142
- logFC, unannotated transcript (DMSO vs SAHA, downregulated, transcript 23066376): -1.488
- logFC, unannotated transcript (DMSO vs SAHA, downregulated, transcript 23066377): -1.951
- logFC, unannotated transcript (DMSO vs SAHA, downregulated, transcript 23068519): -1.54
- logFC, unannotated transcript (DMSO vs SAHA, downregulated, transcript 23071518): -1.2407
- logFC, unannotated transcript (DMSO vs SAHA, downregulated, transcript 23074026): -1.4
- logFC, unannotated transcript (DMSO vs SAHA, downregulated, transcript 23074907): -1.601
- logFC, unannotated transcript (DMSO vs SAHA, downregulated, transcript 23075457): -1.338
- logFC, unannotated transcript (DMSO vs SAHA, downregulated, transcript 23075879): -1.002
- logFC, unannotated transcript (DMSO vs SAHA, downregulated, transcript 23076022): -1.002
- logFC, unannotated transcript (DMSO vs SAHA, downregulated, transcript 23076173): -1.06
- logFC, unannotated transcript (DMSO vs SAHA, downregulated, transcript HTA2-pos-3662482_st): -0.977
- logFC, unannotated transcript (DMSO vs SAHA, downregulated, transcript HTA2-pos-3671550_st): -1.877
- logFC, unannotated transcript (DMSO vs SAHA, downregulated, transcript HTA2-pos-3671554_st): -1.443
- logFC, unannotated transcript (DMSO vs SAHA, downregulated, transcript HTA2-pos-PSR17008077.hg.1): -1.062
- logFC, unannotated transcript (DMSO vs SAHA, downregulated, transcript HTA2-pos-PSR17008082.hg.1): -1.0258
- logFC, unannotated transcript (DMSO vs SAHA, downregulated, transcript HTA2-pos-PSR17013958.hg.1): -1.428
- logFC ARAF (DMSO vs SAHA, downregulated, transcript TC0X00007148.hg.1): -1.073
- logFC RBM3 (DMSO vs SAHA, downregulated, transcript TC0X00007195.hg.1): -1.375
- logFC SUV39H1 (DMSO vs SAHA, downregulated, transcript TC0X00007200.hg.1): -1.395
- logFC PLP2 (DMSO vs SAHA, downregulated, transcript TC0X00007222.hg.1): -1.034
- logFC PBDC1 (DMSO vs SAHA, downregulated, transcript TC0X00007686.hg.1): -1.452
- logFC MID2 (DMSO vs SAHA, downregulated, transcript TC0X00008078.hg.1): -1.792
- logFC HMGB3 (DMSO vs SAHA, downregulated, transcript TC0X00008724.hg.1): -1.132
- logFC TAF9B (DMSO vs SAHA, downregulated, transcript TC0X00010136.hg.1): -1.5452
- logFC STS (DMSO vs SAHA, downregulated, transcript TC0X00011259.hg.1): -1.335
